Data published in US8664162B2, “Method for application of pesticides and plant growth regulators and nutrients to plants” (ArborSystems, priority 2009, dated 2014).

How the values were obtained:
[1] = in vivo; conditions: aspen tree
Method: The tree had not previously been treated with any pesticide. About 4 to 5 ml of a formulation containing 5% imidacloprid and 95% tetrahydrofurfuryl alcohol (THFA) was poured onto the soil around the base and then watered in.
(§1) Leaves obtained from the treated and untreated trees 100 days after treatment were analyzed for imidacloprid by enzyme-linked immunosorbent assay (ELISA). Briefly, leaves were dried completely and leaf blade material was separated from stems and petioles. The leaf blade material was ground to a fine powder, and about 5 grams of the material placed in a vial. A measured amount of methanol was added so that the leaf material was covered and 1 to 2 ml of methanol was beyond the leaf material, for a total of 10 to 20 ml of methanol. The vials were mixed well at least twice a day for at least 48 hours. After at least 48 hours, 10 microliters of the liquid was transferred to a smaller vial, and 1.5 ml distilled water added, and the vials were mixed well. ELISA was performed using the Envirologix™ QuantiPlate Kit for Imidacloprid (EP 006).

[2] = in vivo; conditions: phylodendrons
Method: as §1
Five ml of a formulation of 5% imidacloprid and 95% THFA was applied to the soil of each of two 4-inch diameter pots of phylodendrons. An equal number of control plants received no insecticide treatment. All of the plants were watered and kept in the same area. On the tenth day after treatment, leaves from treated and control plants were collected and tested for imidacloprid by ELISA as described in Example 1.

O=[N+]([O-])NC1=NCCN1Cc1ccc(Cl)nc1 [imidacloprid]
concentration at 100 days [1]: 17000 ng/g | Time for absorption by the roots and translocation to the leaves [2]: ≤ 10 days | concentration at 10 days [2]: 72000 ng/g
